Some test systems named below: SNB-75 CNS; OVCAR-8 ovarian; HCC-2998 colon; BT-549 breast; TK-10 renal; SW-620 colon; SR leukemia; UACC-62 melanoma; SNB-19 CNS; MCF7 breast; M14 melanoma; DU-145 prostate; T-47D breast; HCT-15 colon; SK-OV-3 ovarian; A549 NSCLC; NCI-H460 lung.
What all share (assay): growth of human tumour cells (NCI), 48 h

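Growth conditions: 96-well plates. Treatment: test compound, 48 hours, 5 concentrations. Analysis: linear interpolation between bracketing concentrations; unreached endpoints set to highest concentration. TGI denotes the concentration required for complete inhibition of growth.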

For `CNCCN[C@@H]1c2cc3c(cc2[C@@H](c2cc(OC)c(O)c(OC)c2)[C@H]2C(=O)OC[C@@H]21)OCO3`, the TGI was 1.12 µM in the assay on SNB-75 CNS; 2.22 µM in the assay with OVCAR-8 ovarian; 3.79 µM in the assay with HCC-2998 colon; 0.814 µM in the assay on BT-549 breast; 8.21 µM in the assay on TK-10 renal; more than 100 µM in the assay with SW-620 colon. Further, the TGI in the assay with SR leukemia was 0.287 µM; with UACC-62 melanoma, 0.831 µM; in the assay with SNB-19 CNS, 11.9 µM; with MCF7 breast, more than 53.3 µM; in the assay on M14 melanoma it was 4.68 µM; with DU-145 prostate, 1.57 µM. Further, the TGI was determined as 2.6 µM in the assay on T-47D breast, 98.7 µM in the assay on HCT-15 colon and 1.52 µM in the assay with SK-OV-3 ovarian.

With `COc1ccc(/C=C2\C[C@H]3[C@@H]4CC=C5C[C@@H](OC(C)=O)CC[C@]5(C)[C@H]4CC[C@]3(C)\C2=N\O)cc1OC`, the TGI with SNB-75 CNS, in the assay on OVCAR-8 ovarian, in the assay on HCC-2998 colon, in the assay with BT-549 breast, in the assay with A549 NSCLC and with SW-620 colon was more than 100 µM each time. Further, the TGI with SR leukemia, in the assay on UACC-62 melanoma, with SNB-19 CNS, with MCF7 breast, with M14 melanoma and in the assay with DU-145 prostate was more than 100 µM throughout. Moreover, the TGI with NCI-H460 lung, with T-47D breast, in the assay with HCT-15 colon and in the assay on SK-OV-3 ovarian was more than 100 µM throughout.

Turning to `O=C(O)c1nc2ccc(Cl)cc2[nH]c1=O`, the TGI in the assay with OVCAR-8 ovarian, with HCC-2998 colon, in the assay with BT-549 breast, in the assay on TK-10 renal, with A549 NSCLC and in the assay on SW-620 colon was more than 100 µM in each case. Also, the TGI with SR leukemia, in the assay on UACC-62 melanoma, in the assay on SNB-19 CNS, in the assay on MCF7 breast, in the assay on M14 melanoma and in the assay on DU-145 prostate was more than 100 µM each time. Also, the TGI with NCI-H460 lung, in the assay with T-47D breast, in the assay with HCT-15 colon and in the assay with SK-OV-3 ovarian was more than 100 µM throughout.

In the case of `CCOC(=O)c1nc2ccccc2nc1NCc1ccc(OC)c(OC)c1`, the TGI in the assay on SNB-75 CNS, in the assay on OVCAR-8 ovarian, in the assay with HCC-2998 colon, in the assay with BT-549 breast, in the assay with TK-10 renal and with A549 NSCLC was more than 100 µM each time. The TGI with SW-620 colon, with SR leukemia, in the assay on UACC-62 melanoma, in the assay with MCF7 breast, with DU-145 prostate and in the assay with NCI-H460 lung was more than 100 µM in each case. In addition, the TGI in the assay with T-47D breast, with HCT-15 colon and in the assay on SK-OV-3 ovarian was more than 100 µM in each case.

Consider `CCC(=O)NI1OC(=O)c2ccccc21`, for which the TGI in the assay on SNB-75 CNS, in the assay with OVCAR-8 ovarian, in the assay with HCC-2998 colon, with BT-549 breast, with TK-10 renal and in the assay on A549 NSCLC was more than 100 µM in each case. Further, the TGI in the assay with SW-620 colon, in the assay on SR leukemia, in the assay on UACC-62 melanoma, in the assay with MCF7 breast, in the assay on M14 melanoma and with DU-145 prostate was more than 100 µM in each case. Besides, the TGI in the assay with NCI-H460 lung, in the assay with T-47D breast, with HCT-15 colon and in the assay with SK-OV-3 ovarian was more than 100 µM in each case.

For the compound `C=C1CCCC(C)(C)[C@H]1C/C=C1\CCOC1=O`, the TGI with OVCAR-8 ovarian is 38.5 µM; in the assay with HCC-2998 colon it was more than 100 µM; in the assay on BT-549 breast, 26.9 µM; with TK-10 renal, 34.5 µM; with A549 NSCLC, 26.6 µM; with SW-620 colon, 35.2 µM. Also, the TGI is more than 100 µM in the assay with SR leukemia; more than 100 µM with UACC-62 melanoma; 30.7 µM in the assay on SNB-19 CNS; 25.4 µM in the assay on MCF7 breast; 34 µM in the assay with M14 melanoma; 26.2 µM in the assay on DU-145 prostate. The TGI is 24.4 µM in the assay with NCI-H460 lung, more than 100 µM in the assay on T-47D breast, more than 100 µM with HCT-15 colon and 57 µM with SK-OV-3 ovarian.

On to `Cn1c2c(c3ccccc31)CCN=C2C1CCCOC1=O` (configuration not stated), for which the TGI with SNB-75 CNS, in the assay with OVCAR-8 ovarian, with HCC-2998 colon, with BT-549 breast, in the assay on TK-10 renal and with A549 NSCLC was more than 100 µM throughout. In addition, the TGI in the assay with SW-620 colon, with SR leukemia, in the assay with UACC-62 melanoma, in the assay with SNB-19 CNS, in the assay with MCF7 breast and in the assay on M14 melanoma was more than 100 µM throughout. For the same compound, the TGI with DU-145 prostate, in the assay with NCI-H460 lung, in the assay on T-47D breast and in the assay with HCT-15 colon was more than 100 µM throughout.

With `COc1cc2c(cc1OC)C1c3ccccc3CCN1CCC2` (configuration not stated), the TGI is more than 100 µM with SNB-75 CNS; more than 100 µM with OVCAR-8 ovarian; more than 100 µM with HCC-2998 colon; 81.4 µM in the assay with BT-549 breast; more than 100 µM in the assay on TK-10 renal; more than 100 µM in the assay on A549 NSCLC. For the same compound, the TGI in the assay on SW-620 colon, in the assay on SR leukemia, in the assay with UACC-62 melanoma, in the assay on SNB-19 CNS, with MCF7 breast and in the assay on M14 melanoma was more than 100 µM throughout. Also, the TGI in the assay on DU-145 prostate, in the assay on T-47D breast, with HCT-15 colon and in the assay on SK-OV-3 ovarian was more than 100 µM in each case.

Turning to `O=C1NC(N2CCCC(CO)C2)=N/C1=C\c1ccccc1` (configuration not stated), the TGI in the assay on SNB-75 CNS, with OVCAR-8 ovarian, in the assay on HCC-2998 colon, in the assay on BT-549 breast, in the assay on TK-10 renal and in the assay on A549 NSCLC was more than 100 µM throughout. Also, the TGI with SW-620 colon, in the assay on SR leukemia, in the assay on UACC-62 melanoma, in the assay with SNB-19 CNS, in the assay with MCF7 breast and in the assay with M14 melanoma was more than 100 µM each time. Besides, the TGI with DU-145 prostate, in the assay on T-47D breast, in the assay on HCT-15 colon and in the assay on SK-OV-3 ovarian was more than 100 µM in each case.

These data come from PubChem BioAssay (NCI).
